The source of these data is patent publication US20140031278A1, “Novel Glucagon Analogues” (NOVO NORDISK A/S, priority 2011, published 2014).

*1 amine or outer side, *2 acyl side, *3 side chain or, on linkers, in order; H or OH if unused. Where a SMILES comes first, the peptide text is derived from it. Side-chain parts run from the residue outwards. γGlu = O=C(O)[C@H](CCC(=O)[*:2])N[*:1]; Suc = O=C(CCC(=O)[*:2])[*:1]

T1 sequence (P47871 26-477): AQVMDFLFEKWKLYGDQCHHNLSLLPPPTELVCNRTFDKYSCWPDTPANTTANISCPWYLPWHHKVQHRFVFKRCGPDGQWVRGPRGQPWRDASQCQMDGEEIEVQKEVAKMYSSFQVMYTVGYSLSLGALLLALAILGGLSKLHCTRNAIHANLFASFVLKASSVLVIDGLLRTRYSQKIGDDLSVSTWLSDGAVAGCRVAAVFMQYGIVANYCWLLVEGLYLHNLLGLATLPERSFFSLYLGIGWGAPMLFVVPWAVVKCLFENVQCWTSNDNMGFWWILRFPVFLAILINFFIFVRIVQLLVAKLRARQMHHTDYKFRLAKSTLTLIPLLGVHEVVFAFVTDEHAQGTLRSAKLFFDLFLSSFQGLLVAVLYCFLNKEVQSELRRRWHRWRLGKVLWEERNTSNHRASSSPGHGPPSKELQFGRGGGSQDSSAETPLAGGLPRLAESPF

This assay has as its target T1, glucagon receptor (Homo sapiens, UniProt P47871).
T1 construct: expressed in transfected cells
Description: Assay (I) Glucagon activity (cAMP biosensor, FLIPR). Type of assay: cell-based. The conditions noted are these: HEK-293 cells with cloned glucagon receptor and cAMP biosensor; end point after 6 minutes. In a few lines:
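HEK-293 cells expressing glucagon receptor with membrane cAMP biosensor (ACTOne), calcium-dye loaded with probenecid and a PDE inhibitor.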
`CC(=O)N[C@@H](CCC(=O)N[C@@H](CCC(=O)N[C@@H](CCC(=O)N[C@@H](CCC(=O)NCCCC[C@H](NC(=O)[C@@H](NC(=O)[C@H](Cc1ccccc1)NC(=O)[C@H](CC(=O)O)NC(=O)[C@H](CCC(N)=O)NC(=O)[C@H](C)NC(=O)[C@H](CCCNC(=N)N)NC(=O)[C@H](CCCNC(=N)N)NC(=O)[C@H](CC(C)C)NC(=O)[C@H](CC(=O)O)NC(=O)[C@H](CC(C)C)NC(=O)[C@H](Cc1ccc(O)cc1)NC(=O)[C@H](CCCCN)NC(=O)[C@H](CO)NC(=O)[C@H](Cc1ccc(O)cc1)NC(=O)[C@H](CC(=O)O)NC(=O)[C@H](CO)NC(=O)[C@@H](NC(=O)[C@H](Cc1ccccc1)NC(=O)[C@@H](NC(=O)CNC(=O)[C@H](CCC(N)=O)NC(=O)CNC(=O)[C@@H](N)Cc1c[nH]cn1)[C@@H](C)O)[C@@H](C)O)C(C)C)C(=O)N[C@@H](Cc1c[nH]c2ccccc12)C(=O)N[C@@H](CC(C)C)C(=O)N[C@@H](CC(C)C)C(=O)N[C@@H](CO)C(=O)N[C@H](C(=O)O)[C@@H](C)O)C(=O)O)C(=O)O)C(=O)O)C(=O)O` [Example 55, N^ε24-[(4S)-4-[[(4S)-4-[[(4S)-4-[[(4S)-4-acetamido-4-carboxybutanoyl]amino]-4-carboxybutanoyl]amino]-4-carboxybutanoyl]amino]-4-carboxybutanoyl]-[Gly^2,Leu^16,Lys^24,Leu^27,Ser^28]-Glucagon] (H-HGQGTFTSDYSKYLDLRRAQDFVK([γGlu-γGlu-γGlu-γGlu-Ac])WLLST-OH): the midpoint of the response, the EC50, lay at 51 pM.

Consider `CC(C)C[C@H](NC(=O)[C@H](CC(=O)O)NC(=O)[C@H](CC(C)C)NC(=O)[C@H](Cc1ccc(O)cc1)NC(=O)[C@H](CCCNC(=N)N)NC(=O)[C@H](CO)NC(=O)[C@H](Cc1ccc(O)cc1)NC(=O)[C@H](CC(=O)O)NC(=O)[C@H](CO)NC(=O)[C@@H](NC(=O)[C@H](Cc1ccccc1)NC(=O)[C@@H](NC(=O)CNC(=O)[C@H](CCC(N)=O)NC(=O)[C@H](CO)NC(=O)[C@@H](N)Cc1c[nH]cn1)[C@@H](C)O)[C@@H](C)O)C(=O)N[C@@H](CCCNC(=N)N)C(=O)N[C@@H](CCCNC(=N)N)C(=O)N[C@@H](C)C(=O)N[C@@H](C)C(=O)N[C@@H](CC(=O)O)C(=O)N[C@@H](Cc1ccccc1)C(=O)N[C@H](C(=O)N[C@@H](CCCCNC(=O)CC[C@H](NC(=O)CC[C@H](NC(=O)CC[C@H](NC(=O)CC[C@H](NC(=O)CCC(=O)O)C(=O)O)C(=O)O)C(=O)O)C(=O)O)C(=O)N[C@@H](Cc1c[nH]c2ccccc12)C(=O)N[C@@H](CC(C)C)C(=O)N[C@@H](CC(C)C)C(=O)N[C@@H](CO)C(=O)N[C@H](C(=O)O)[C@@H](C)O)C(C)C` [Example 66, N^ε24-[(4S)-4-carboxy-4-[[(4S)-4-carboxy-4-[[(4S)-4-carboxy-4-[[(4S)-4-carboxy-4-(3-carboxypropanoylamino)butanoyl]amino]butanoyl]amino]butanoyl]amino]butanoyl]-[Arg^12,Leu^16,Ala^20,Lys^24,Leu^27,Ser^28]-Glucagon] (H-HSQGTFTSDYSRYLDLRRAADFVK([γGlu-γGlu-γGlu-γGlu-Suc])WLLST-OH), for which the midpoint of the response, the EC50, lay at 20 pM.

The compound `CC(=O)N[C@@H](CCC(=O)N[C@@H](CCC(=O)N[C@@H](CCC(=O)N[C@@H](CCC(=O)NCCCC[C@H](NC(=O)[C@@H](NC(=O)[C@H](Cc1ccccc1)NC(=O)[C@H](CC(=O)O)NC(=O)[C@H](CCC(N)=O)NC(=O)[C@H](C)NC(=O)[C@H](CCCNC(=N)N)NC(=O)[C@H](CCCNC(=N)N)NC(=O)[C@@H](NC(=O)[C@H](CC(=O)O)NC(=O)[C@H](CC(C)C)NC(=O)[C@H](Cc1ccc(O)cc1)NC(=O)[C@H](CCCCN)NC(=O)[C@H](CO)NC(=O)[C@H](Cc1ccc(O)cc1)NC(=O)[C@H](CC(=O)O)NC(=O)[C@H](CO)NC(=O)[C@@H](NC(=O)[C@H](Cc1ccccc1)NC(=O)[C@@H](NC(=O)CNC(=O)[C@H](Cc1c[nH]cn1)NC(=O)[C@H](CO)NC(=O)[C@@H](N)Cc1c[nH]cn1)[C@@H](C)O)[C@@H](C)O)[C@@H](C)O)C(C)C)C(=O)N[C@@H](Cc1c[nH]c2ccccc12)C(=O)N[C@@H](CC(C)C)C(=O)N[C@@H](CC(C)C)C(=O)N[C@@H](CO)C(=O)N[C@H](C(=O)O)[C@@H](C)O)C(=O)O)C(=O)O)C(=O)O)C(=O)O` [Example 32, N^ε24-[(4S)-4-[[(4S)-4-[[(4S)-4-[[(4S)-4-acetamido-4-carboxybutanoyl]amino]-4-carboxybutanoyl]amino]-4-carboxybutanoyl]amino]-4-carboxybutanoyl]-[His3,Thr16,Lys24,Leu27,Ser28]-Glucagon] (H-HSHGTFTSDYSKYLDTRRAQDFVK([γGlu-γGlu-γGlu-γGlu-Ac])WLLST-OH) showed an EC50 of 9 pM.

For the compound `CC(=O)N[C@@H](CCC(=O)N[C@@H](CCC(=O)N[C@@H](CCC(=O)N[C@@H](CCC(=O)NCCCC[C@H](NC(=O)[C@@H](NC(=O)[C@H](Cc1ccccc1)NC(=O)[C@H](CC(=O)O)NC(=O)[C@H](CCC(N)=O)NC(=O)[C@H](C)NC(=O)[C@H](CCCNC(=N)N)NC(=O)[C@H](CCCNC(=N)N)NC(=O)[C@H](Cc1c[nH]c2ccccc12)NC(=O)[C@H](CC(=O)O)NC(=O)[C@H](CC(C)C)NC(=O)[C@H](Cc1ccc(O)cc1)NC(=O)[C@H](CCCCN)NC(=O)[C@H](CO)NC(=O)[C@H](Cc1ccc(O)cc1)NC(=O)[C@H](CC(=O)O)NC(=O)[C@H](CO)NC(=O)[C@@H](NC(=O)[C@H](Cc1ccccc1)NC(=O)[C@@H](NC(=O)CNC(=O)[C@H](CCC(N)=O)NC(=O)[C@H](CO)NC(=O)[C@@H](N)Cc1c[nH]cn1)[C@@H](C)O)[C@@H](C)O)C(C)C)C(=O)N[C@@H](Cc1c[nH]c2ccccc12)C(=O)N[C@@H](CC(C)C)C(=O)N[C@@H](CC(C)C)C(=O)N[C@@H](CO)C(=O)N[C@H](C(=O)O)[C@@H](C)O)C(=O)O)C(=O)O)C(=O)O)C(=O)O` [Example 34], a half-maximal response (EC50) required 2.3 pM.

`CC(C)C[C@H](NC(=O)[C@H](Cc1ccc(O)cc1)NC(=O)[C@H](CCCNC(=N)N)NC(=O)[C@H](CO)NC(=O)[C@H](Cc1ccc(O)cc1)NC(=O)[C@H](CC(=O)O)NC(=O)[C@H](CO)NC(=O)[C@@H](NC(=O)[C@H](Cc1ccccc1)NC(=O)[C@@H](NC(=O)CNC(=O)[C@H](Cc1c[nH]cn1)NC(=O)[C@H](CO)NC(=O)[C@@H](N)Cc1c[nH]cn1)[C@@H](C)O)[C@@H](C)O)C(=O)N[C@@H](CCC(=O)O)C(=O)N[C@@H](CO)C(=O)N[C@@H](CCCNC(=N)N)C(=O)N[C@@H](CCCNC(=N)N)C(=O)N[C@@H](C)C(=O)N[C@@H](C)C(=O)N[C@@H](CC(=O)O)C(=O)N[C@@H](Cc1ccccc1)C(=O)N[C@H](C(=O)N[C@@H](CCCCNC(=O)CC[C@H](NC(=O)CC[C@H](NC(=O)CC[C@H](NC(=O)CC[C@H](N)C(=O)O)C(=O)O)C(=O)O)C(=O)O)C(=O)N[C@@H](Cc1c[nH]c2ccccc12)C(=O)N[C@@H](CC(C)C)C(=O)N[C@@H](CC(C)C)C(=O)N[C@@H](CO)C(=O)N[C@H](C(=O)O)[C@@H](C)O)C(C)C` [Example 6, N^ε24-[(4S)-4-[[(4S)-4-[[(4S)-4-[[(4S)-4-amino-4-carboxybutanoyl]amino]-4-carboxybutanoyl]amino]-4-carboxybutanoyl]amino]-4-carboxybutanoyl]-[His3,Arg12,Glu15,Ala20,Lys24,Leu27,Ser28]-Glucagon] (H-HSHGTFTSDYSRYLESRRAADFVK([γGlu-γGlu-γGlu-γGlu])WLLST-OH): the EC50 was 79.5 pM.

`CC(C)C[C@H](NC(=O)[C@H](Cc1c[nH]c2ccccc12)NC(=O)[C@H](CCCCNC(=O)CC[C@H](NC(=O)CC[C@H](NC(=O)CC[C@H](NC(=O)CC[C@H](N)C(=O)O)C(=O)O)C(=O)O)C(=O)O)NC(=O)[C@@H](NC(=O)[C@H](Cc1ccccc1)NC(=O)[C@H](CC(=O)O)NC(=O)[C@H](C)NC(=O)[C@H](C)NC(=O)[C@H](CCCNC(=N)N)NC(=O)[C@H](CCCNC(=N)N)NC(=O)[C@@H](NC(=O)[C@H](CC(=O)O)NC(=O)[C@H](CC(C)C)NC(=O)[C@H](Cc1ccc(O)cc1)NC(=O)[C@H](CCCNC(=N)N)NC(=O)[C@H](CO)NC(=O)[C@H](Cc1ccc(O)cc1)NC(=O)[C@H](CC(=O)O)NC(=O)[C@H](CO)NC(=O)[C@@H](NC(=O)[C@H](Cc1ccccc1)NC(=O)[C@@H](NC(=O)CNC(=O)[C@H](Cc1c[nH]cn1)NC(=O)[C@H](CO)NC(=O)[C@@H](N)Cc1c[nH]cn1)[C@@H](C)O)[C@@H](C)O)[C@@H](C)O)C(C)C)C(=O)N[C@@H](CC(C)C)C(=O)N[C@@H](CO)C(=O)N[C@H](C(=O)O)[C@@H](C)O` [Example 9, N^ε24-[(4S)-4-[[(4S)-4-[[(4S)-4-[[(4S)-4-amino-4-carboxybutanoyl]amino]-4-carboxybutanoyl]amino]-4-carboxybutanoyl]amino]-4-carboxybutanoyl]-[His3,Arg12,Thr16,Ala20,Lys24,Leu27,Ser28]-Glucagon] (H-HSHGTFTSDYSRYLDTRRAADFVK([γGlu-γGlu-γGlu-γGlu])WLLST-OH) gave an EC50 of 37 pM.

In turn, `CC(=O)N[C@@H](CCC(=O)N[C@@H](CCC(=O)N[C@@H](CCC(=O)N[C@@H](CCC(=O)NCCCC[C@H](NC(=O)[C@@H](NC(=O)[C@H](Cc1ccccc1)NC(=O)[C@H](CCC(=O)O)NC(=O)[C@H](C)NC(=O)[C@H](C)NC(=O)[C@H](CCCNC(=N)N)NC(=O)[C@H](CCCNC(=N)N)NC(=O)[C@@H](NC(=O)[C@H](CC(=O)O)NC(=O)[C@H](CC(C)C)NC(=O)[C@H](Cc1ccc(O)cc1)NC(=O)[C@H](CCCCN)NC(=O)[C@H](CO)NC(=O)[C@H](Cc1ccc(O)cc1)NC(=O)[C@H](CC(=O)O)NC(=O)[C@H](CO)NC(=O)[C@@H](NC(=O)[C@H](Cc1ccccc1)NC(=O)[C@@H](NC(=O)CNC(=O)[C@H](Cc1c[nH]cn1)NC(=O)CNC(=O)[C@@H](N)Cc1c[nH]cn1)[C@@H](C)O)[C@@H](C)O)C(C)C)C(C)C)C(=O)N[C@@H](Cc1c[nH]c2ccccc12)C(=O)N[C@@H](CC(C)C)C(=O)N[C@@H](CC(C)C)C(=O)N[C@@H](CO)C(=O)N[C@H](C(=O)O)[C@@H](C)O)C(=O)O)C(=O)O)C(=O)O)C(=O)O` [Example 46, N^ε24-[(4S)-4-[[(4S)-4-[[(4S)-4-[[(4S)-4-acetamido-4-carboxybutanoyl]amino]-4-carboxybutanoyl]amino]-4-carboxybutanoyl]amino]-4-carboxybutanoyl]-[Gly^2,His^3,Val^16,Ala^2°,Glu^21,Lys^24,Leu^27,Ser^28]-Glucagon] (H-HGHGTFTSDYSKYLDVRRAAEFVK([γGlu-γGlu-γGlu-γGlu-Ac])WLLST-OH) registered an EC50 of 24 pM. This EC50 lies about 1.5-fold lower than the previous one.
